The record followed here is patent publication US8058243B2, “Method for treating a brain cancer with ifenprodil” (HSC Research and Development Limited Partnership, priority 2006, dated 2011).

Structures can show the parent of a compound that is named as a salt. Where two headings read alike, the source gives them in different places.

This assay relates to murine neural precursor cells (neurosphere cultures). Description: HTS of LOPAC library against secondary neurosphere cultures, MTT proliferation assay at 3 μM, day 7 (z score, P value). Type of assay: cell-based, mouse. (Formazan colour is commonly taken as a measure of viable cells.)
The mark [1] stands for this setting: LOPAC library screen, 3 μM, MTT, secondary neurosphere cultures, day 7.
[2] abbreviates: LOPAC screen, neurosphere MTT proliferation, 3 μM, day 7.
The mark [3] stands for this setting: yes/no: significantly inhibited neurosphere proliferation (P<0.01) in primary screen.
[4] abbreviates: primary LOPAC screen, 3 μM, MTT, neurosphere proliferation.
The mark [5] stands for this setting: yes/no: significantly inhibited neurosphere proliferation in the primary screen.
Setting [6] is: LOPAC library screen, 3 μM, MTT, neurosphere cultures.
Setting [7] is: LOPAC primary screen, neurosphere MTT proliferation, 3 μM, day 7.
[8] abbreviates: yes/no: significantly inhibited neurosphere proliferation (P<0.01) in the primary screen.
The mark [9] stands for this setting: LOPAC library screen at 3 μM, secondary neurosphere cultures, MTT.
Setting [10] is: yes/no: significantly inhibited neurosphere proliferation in primary screen.
Setting [11] is: yes = significantly inhibited neurosphere proliferation (P<0.01) in the primary screen.

Regarding `COc1cc2c(CCNC(C)=O)c[nH]c2cc1Cl` [6-Chloromelatonin], the “Z Score” value under setting [1] is listed as −1.659. Further, the Z score under setting [2] is −1.659. The Activity entry under setting [3] is recorded as “no”.

For `c1ccc(C2CN3CCSC3=N2)cc1` (centres unmarked) [Tetramisole hydrochloride], the “Z Score” value (LOPAC library screen at 3 μM, MTT, secondary neurosphere cultures, screened in singlets) is 2.649. This compound also had a Z score under setting [4] of 2.649. The Activity result under setting [5] is reported as “no”.

Turning to WB 64, the “Z Score” value is recorded as −1.683. Moreover, the Z score under setting [4] is listed as −1.683. Moreover, the Activity entry under setting [5] is reported as “no”.

Consider `C[C@]12CCC(=O)C=C1CC[C@@H]1[C@@H]2[C@@H](O)C[C@@]2(C)[C@H]1CC[C@]2(O)C(=O)COC(=O)CCC(=O)[O-].[Na+]` [Hydrocortisone 21-hemisuccinate sodium], for which the “Z Score” value under setting [6] is −0.04033. Further, the Z score under setting [7] is −0.040. In addition, the Activity result under setting [3] is reported as “no”.

Take `C[N+](C)(C)CCCCCC[N+](C)(C)C` [Hexamethonium bromide]: the “Z Score” value is recorded as −0.8199. The compound further yielded a Z score under setting [7] of −0.820. For the same compound, the Activity result under setting [8] is reported as “no”.

As to `N#C/C(=C\c1ccc(O)c(O)c1)C(=O)Nc1ccccc1` [Tyrphostin AG 494], the “Z Score” value is −2.275. Under setting [4], this compound registered a Z score of −2.275. Further, the Activity entry under setting [5] is recorded as “no”.

With `O=C1O/C(=C/Br)CCC1c1cccc2ccccc12` (centres unmarked) [Bromoenol lactone], where the note is “168 h, 3 µM”, the “Z Score” value is given as 0.2484 and the Z score amounted to 0.248. In addition, the Activity entry under setting [5] is recorded as “no”.

As to `Cl.NCC(O)C1CCCCCCC1` (centres unmarked), the “Z Score” value was −0.5747.

Compound `O=c1[nH]c(=O)n([C@H]2C[C@H](O)[C@@H](CO)O2)cc1Br` [5-Bromo-2′-deoxyuridine] had a Z score under setting [2] of 2.580. Moreover, the Activity entry under setting [3] was “no”.

In the case of `Nc1nc2c(ncn2COCCO)c(=O)[nH]1` [Acyclovir], the “Z Score” value under setting [9] is −1.215. Under setting [7], this compound returned a Z score of −1.215. Moreover, the Activity entry under setting [8] is reported as “no”.

On to `[Cl-].[Li+]` [Lithium Chloride], for which the “Z Score” value is on record as −0.9113. In addition, the Z score under setting [7] is −0.911. For the same compound, the Activity result under setting [3] is reported as “no”.

`Cl.NCC(O)c1ccc(O)cc1` (racemic) [(±)-Octopamine hydrochloride] gave a Z score under setting [7] of −1.567. In addition, under setting [10], the Activity entry is on record as “no”.

For the compound (−)-Bicuculline methbromide, 1(S), 9(R), the Activity entry was “no” and the “Z Score” value is on record as −1.842. For the same compound, under setting [7], the Z score is on record as −1.842.

Regarding `CN(C)CCCO[C@@H]1[C@H]2OC(C)(C)O[C@H]2O[C@@H]1[C@H](O)CO` [Amiprilose hydrochloride], for the setting “168 h, 3 µM”, the “Z Score” value is −0.7783 and the Z score is reported as −0.778. The Activity result under setting [5] is “no”.

On to `COc1ccc2c(c1)[C@]13CCCC[C@@H]1[C@H](C2)N(C)CC3`, for which the “Z Score” value is −0.7932. The same compound showed a Z score under setting [7] of −0.793. The Activity entry under setting [8] is listed as “no”.

Consider `N[C@H](C(=O)O)c1cc(O)cc(O)c1` [(S)-3,5-Dihydroxyphenyglycine], for which the Z score under setting [2] is given as −0.336. Further, the Activity entry under setting [3] is “no”.

As to `CCCCC1C(=O)N(c2ccccc2)N(c2ccccc2)C1=O` [Phenylbutazone], under setting [6], the “Z Score” value was 0.7902. Moreover, the Z score under setting [7] worked out at 0.790.

For the compound `O=C1c2c(O)ccc(O)c2C(=O)c2c(NCCNCCO)ccc(NCCNCCO)c21` [Mitoxantrone], the “Z Score” value under setting [1] was −10.21. The same compound had a Z score under setting [7] of −10.205. Besides, the Activity entry under setting [11] was “yes”.

Take `Clc1ccc(N2CC3CCC(C2)N3)nn1` [DBO-83]: the “Z Score” value is −1.279. Also, under setting [2], the Z score is given as −1.279. The Activity entry under setting [3] is reported as “no”.

As for `Oc1ccc(C=Cc2cc(O)cc(O)c2)cc1` [Resveratrol], the “Z Score” value under setting [9] is on record as −0.2295. The compound further displayed a Z score under setting [7] of −0.230. For the same compound, the Activity entry under setting [10] is “no”.

As to `CN(C)CCN(Cc1cccs1)c1ccccn1` [Methapyrilene hydrochloride], the “Z Score” value under setting [6] turned out to be 0.6276. In addition, under setting [7], the Z score turned out to be 0.628.

Regarding `CC(=O)O[C@H]1C(=O)[C@@]2(C)[C@H]([C@H](OC(=O)c3ccccc3)[C@]3(O)C[C@H](OC(=O)[C@H](O)[C@@H](NC(=O)c4ccccc4)c4ccccc4)C(C)=C1C3(C)C)[C@]1(OC(C)=O)CO[C@@H]1C[C@@H]2O` [Taxol], the “Z Score” value under setting [1] is −11.27. The compound also showed a Z score under setting [7] of −11.274. Moreover, under setting [11], the Activity result is on record as “yes”.

For the compound `COC(=O)c1cc2c(cn1)[nH]c1ccccc12` [Methyl beta-carboline-3-carboxylate], the “Z Score” value was determined as 0.06023. The Z score under setting [7] is on record as 0.060. Besides, under setting [3], the Activity result is “no”.

As to `COc1cc2nc(N3CCN(C(=O)c4ccco4)CC3)nc(N)c2cc1OC` [Prazosin hydrochloride], the Activity entry is on record as “yes”. The “Z Score” value under setting [1] is −2.902. Besides, the Z score under setting [7] is −2.902.

With `CCN(CC)CC(=O)Nc1c(C)cccc1C` [Lidocaine hydrochloride], under setting [9], the “Z Score” value is on record as −0.1111. The same compound came in with a Z score under setting [7] of −0.111. The Activity entry under setting [3] is on record as “no”.

`O=C(O)CCC/C=C\C[C@@H]1[C@@H](/C=C/[C@H](O)C2Cc3ccccc3C2)[C@@H](F)C[C@@H]1O` [AL-8810]: the “Z Score” value was −1.806. The Z score under setting [4] is recorded as −1.806. In addition, the Activity entry under setting [5] is on record as “no”.

For `NCCCNCCSP(=O)(O)O` [Amifostine], where the note is “168 h, 3 µM”, the “Z Score” value is on record as 0.3592 and the Z score is 0.359. In addition, under setting [11], the Activity result was “no”.

For the compound `COc1cc2c(cc1O)CC[C@@H]1[C@@H]2CC[C@]2(C)[C@@H](O)CC[C@@H]12` [2-methoxyestradiol], under setting [9], the “Z Score” value is reported as −0.9833. Also, the Z score under setting [7] is on record as −0.983. In addition, the Activity entry under setting [11] is given as “no”.

Consider `CNC(=O)c1cc2c(cn1)[nH]c1ccccc12` [N-Methyl-beta-carboline-3-carboxamide], for which, for the setting “168 h, 3 µM”, the “Z Score” value is given as 0.6988 and the Z score is 0.699. Further, the Activity entry under setting [3] is reported as “no”.

As to `Cl.Cl.Cn1cnc(CCN)c1` [1-Methylbistamine dihydrochloride], the “Z Score” value was 0.3068.

Consider `CC1CCCC=CC2CC(O)CC2C(O)C=CC(=O)O1` (centres unmarked), for which the “Z Score” value is given as −11.27. Under setting [7], the Z score is recorded as −11.274. Moreover, the Activity entry under setting [11] is reported as “yes”.

`CC(C)Cc1ccc(C(C)C(=O)O)cc1` (centres unmarked) [(B1)-Ibuprofen]: the “Z Score” value is reported as −0.2623.

Regarding `Nc1nc(SCc2ccc([N+](=O)[O-])cc2)c2ncn([C@@H]3O[C@H](CO)[C@@H](O)[C@H]3O)c2n1` [S-(4-Nitrobenzyl)-6-thioguanosine], the “Z Score” value under setting [6] was 0.1017. The compound further came in with a Z score under setting [7] of 0.102. Moreover, under setting [10], the Activity result is given as “no”.

As to `Cc1[nH]c2ccc(O)cc2c1CCN.O=C(O)/C=C\C(=O)O` [2-Methyl-5-hydroxytryptamine maleate], the “Z Score” value is 0.5718. Under setting [7], this compound had a Z score of 0.572. The Activity result under setting [11] is given as “no”.

Regarding `C[C@](N)(CCP(=O)(O)O)C(=O)O.Cl` [(S)-MAP4 hydrochloride], the “Z Score” value was −0.5525. This compound displayed a Z score under setting [7] of −0.553. The Activity entry under setting [11] is listed as “no”.

In the case of `CNC(=O)[C@H]1O[C@@H](n2cnc3c(NCc4ccc(N)cc4)ncnc32)[C@H](O)[C@@H]1O` [AB-MECA], the “Z Score” value turned out to be 0.7604. In addition, the Z score under setting [4] is recorded as 0.760. Further, under setting [5], the Activity result is recorded as “no”.

With `CCCCc1oc2ccccc2c1C(=O)c1cc(I)c(OCCN(CC)CC)c(I)c1` [Amiodarone hydrochloride], the “Z Score” value under setting [6] was determined as 0.9292. The Z score under setting [4] was 0.929. Further, the Activity result under setting [5] is “no”.

As for `NC(=O)c1cccc(N)c1` [3-aminobenzamide], the “Z Score” value is recorded as −1.034. The compound further returned a Z score under setting [7] of −1.034. The Activity entry under setting [10] is recorded as “no”.

Consider `CCOC(=O)[C@]12CC1/C(=N\O)c1ccccc1O2` (mixture of isomers) [CPCCOEt], for which the “Z Score” value under setting [9] is recorded as −0.8068. In addition, under setting [2], the Z score is −0.807.

For `CN1CCCC1c1cccnc1.O=C(O)C(O)C(O)C(=O)O` (single isomer, unassigned; (-)) [(−)-Nicotine hydrogen tartrate salt], the Activity result is listed as “no”, the “Z Score” value was 0.04498 and the Z score is 0.045.

Regarding `C[C@]12CCC(=O)C=C1CC[C@@H]1[C@@H]2CC[C@@]2(C)[C@H]1CC[C@]2(O)C(=O)CO` [Cortexolone], the “Z Score” value under setting [9] was −0.6087. The same compound had a Z score under setting [7] of −0.609. Moreover, the Activity result under setting [10] is reported as “no”.

Under setting [4], `C[C@]12CC[C@@H](O)C[C@@H]1CC[C@@H]1[C@@H]2CC[C@]2(C)[C@@H](O)CC[C@@H]12` [5alpha-Androstane-3alpha,17beta-diol] showed a Z score of −0.381. In addition, under setting [5], the Activity result is on record as “no”.

Regarding `CNC(=O)[C@H]1O[C@@H](n2cnc3c(NCc4cccc(I)c4)ncnc32)[C@H](O)[C@@H]1O` [IB-MECA], under setting [9], the “Z Score” value is recorded as −1.089. Under setting [7], this compound had a Z score of −1.089. Also, the Activity entry under setting [3] is “no”.

For `O=C(O)c1cc([N+](=O)[O-])ccc1NCCCc1ccccc1` [5-Nitro-2-(3-phenylpropylamino)benzoic acid], where the note is “168 h, 3 µM”, the “Z Score” value is given as −0.7343 and the Z score is given as −0.734. The Activity entry under setting [11] is recorded as “no”.

For `CNCCNS(=O)(=O)c1cccc2cnccc12.Cl.Cl` [H-8 dihydrochloride], the “Z Score” value is −1.583. In addition, the Z score under setting [7] is −1.583. Under setting [11], the Activity entry is “no”.
